Legend:
[1] = test system: human iPS cell line HC-6 #10; assay: Maturation culture of cell clusters in viscous medium (Experiment 16); type: cell-based; conditions: IGF-1 20 ng/ml, 10% fetal bovine serum and EC23 100 nM added together to the culture medium; day 45
Method: Cell clusters were maturation-cultured in a viscous medium in accordance with the method shown in the upper section of FIG. 30. The viscous medium was prepared with reference to Japanese Patent No. 6176770. Specifically, 3 g of methylcellulose (manufactured by Sigma. Aldrich, Inc., viscosity: 4000 cP, M0512) was weighed, and sterilized by autoclaving in a 500 ml wide-open medium bottle containing an agitator, and then 100 ml of medium was added thereto. As the medium, a 1:1 in volume mixture of F-12+Glutamax medium and IMDM+Glutamax medium supplemented with 5% Knockout Serum Replacement, 10% fetal bovine serum (manufactured by Biosera), 450 μM 1-monothioglycerol, lx Chemically defined lipid concentrate, 50 unit/ml penicillin-50 μg/ml streptomycin, 20 ng/ml FGF-TS, 20 ng/ml EGF, 20 ng/ml IGF-1 (manufactured by R&D Systems), 10 μg/ml Heparin Sodium, 1 μM SB431542, 1 μM K02288, 300 nM CHIR99021, and 100 nM EC23 (retinoic acid signaling pathway-activating substance) was used. The medium bottle containing methylcellulose supplemented with the medium was stirred in a cryogenic chamber overnight using a stirrer corresponding to a high viscosity liquid (manufactured by Asahi Rika Factory. Ltd, AMG-H). […]

[2] = test system: human iPS cell line HC-6 #10; assay: Effect of TAK1 inhibitor in cell cluster production (Experiment 15); type: cell-based; conditions: 5z-7-oxozeaenol 2 μM from day 3 (step (3)); day 21
Method: Human iPS cells (HC-6 #10 cell line, obtained from the Institute of Physical and Chemical Research) were subjected to maintenance culturing and step (a) in the same manner as in Experiment 1. The suspension culturing was started on a 96-well culture plate in the same manner as in Experiment 1, except that the number of cells per well was 9×10^3 cells.
At the start of suspension culturing (day 0 after the start of suspension culturing, start of step (1)), Y27632 (final concentration 20 μM), IWP-2 (final concentration 2 μM), SB-431542 (final concentration 1 μM) and CHIR99021 (final concentration 300 nM) were added to the serum-free medium.
On day 2 after the start of suspension culturing, a serum-free medium being free of Y27632 and containing SB-431542, BMP4, IWP-2 and CHIR99021 was added at 100 μl per well (start of step (2)). BMP4 was added to the medium at 3 nM to be a final concentration in the well of 1.5 nM.
On day 3 after the start of suspension culturing, the medium was half exchanged with a serum-free medium being free of Y27632 and BMP4 and containing IWP-2, SB-431542, FGF2, Heparin Sodium, and CHIR99021. In addition, a TAK1 inhibitor 5z-7-oxozeaenol (manufactured by Cayman Chemical) was added to the medium at 4 μM to be a final concentration in the well of 2 μM (start of step (3a)). […]

Row | Compound | maintenance of olfactory epithelial-like tissues [1] | formation of olfactory epithelium-like tissues on the surface of the cell cluster versus cell cluster produced without the TAK1 inhibitor [2]
1 | CC1(C)CCC(C)(C)c2cc(C#Cc3ccc(C(=O)O)cc3)ccc21 | could further efficiently maintain olfactory epithelial-like tissues | –
2 | COc1cc(O)c2c(c1)/C=C/C[C@H](O)[C@H](O)C(=O)/C=C\C[C@H](C)OC2=O [TAK1 inhibitor, (3S,5Z,8S,9S,11E)-3,4,9,10-tetrahydro-8,9,16-tri hydroxy-14-methoxy-3-methyl-1H-2-benzoxacyclotetradecin-1,7(8H)-dione] | – | more efficient formation of olfactory epithelium-like tissues
3 | IGF: 20 ng/ml IGF-1 (manufactured by R&D Systems) in the viscous medium | could further efficiently maintain olfactory epithelial-like tissues | –

Reference: US20210308188A1, “CELL CLUSTER INCLUDING OLFACTORY NEURON OR PRECURSOR CELL THEREOF, AND METHOD FOR PRODUCING SAME” (SUMITOMO CHEMICAL COMPANY, LIMITED, priority 2018, published 2021)
